We go through two molecules from patent publication US7879829B2, “19-nor-vitamin D analogs with 1,2-dihydrofuran ring” (Wisconsin Alumni Research Foundation, priority 2008, dated 2011).

In test [1] the target is T1, full-length recombinant rat vitamin D receptor (Rattus norvegicus, UniProt P13053).
T1 construct: Full-length recombinant rat receptor was expressed in E. coli; histidine tag (C); made in house; host or cells: E. coli BL21 (DE3) Codon Plus RIL
T1 sequence (P13053 1-423): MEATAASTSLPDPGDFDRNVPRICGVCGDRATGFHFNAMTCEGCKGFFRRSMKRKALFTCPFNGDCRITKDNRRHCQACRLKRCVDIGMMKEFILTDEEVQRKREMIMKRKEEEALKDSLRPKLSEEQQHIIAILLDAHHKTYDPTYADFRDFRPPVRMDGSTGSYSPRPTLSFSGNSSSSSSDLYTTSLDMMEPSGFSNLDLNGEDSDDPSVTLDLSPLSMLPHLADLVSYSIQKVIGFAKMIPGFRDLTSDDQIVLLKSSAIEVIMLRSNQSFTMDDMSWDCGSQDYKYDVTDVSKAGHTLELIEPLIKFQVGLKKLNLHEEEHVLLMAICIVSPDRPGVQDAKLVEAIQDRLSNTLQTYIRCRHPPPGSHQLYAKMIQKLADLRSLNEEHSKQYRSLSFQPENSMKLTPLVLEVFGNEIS
As to the kind of experiment: Vitamin D receptor competitive binding with [3H]-1,25-(OH)2D3. An excerpt: Vitamin D Receptor Binding
Full-length recombinant rat receptor was expressed in E. coli BL2 1 (DE3) Codon Plus RIL cells and purified to homogeneity using two different column chromatography systems. The first system was a nickel affinity resin that utilizes the C-terminal histidine tag on this protein. The protein that was eluted from this resin was further purified using ion exchange chromatography (S-Sepharose Fast Flow). Aliquots of the purified protein were quick frozen in liquid nitrogen and stored at −80° C. until use. For use in binding assays, the protein was diluted in TEDK50 (50 mM Tris, 1.5 mM EDTA, pH 7.4, 5 mM DTT, 150 mM KCl) with 0.1% Chaps detergent. The receptor protein and ligand concentration were optimized such that no more than 20% of the added radiolabeled ligand was bound to the receptor.
Radiolabeled and unlabeled ligands were added to 100 mcl of the diluted protein at a final ethanol concentration of ≦10%, mixed and incubated overnight on ice to reach binding equilibrium. The following day, 100 mcl of hydroxylapatite slurry (50%) was added to each tube and mixed at 10-minute intervals for 30 minutes. The hydroxylapaptite was collected by centrifugation and then washed three times with Tris-EDTA buffer (50 mM Tris, 1.5 mM EDTA, pH 7.4) containing 0.5% Titron X-100. After the final wash, the pellets were transferred to scintillation vials containing 4 ml of Biosafe II scintillation cocktail, mixed and placed in a scintillation counter. Total binding was determined from the tubes containing only radiolabeled ligand.

In another test the test system is HL-60 cells. As to the kind of experiment: HL-60 differentiation (nitro blue tetrazolium reduction). The note with it: for EC50: HL-60 cells, 4 days, read-out: EC50, HL60 differentiation. The format is cell-based, human. How it is done:
The study drugs were dissolved in ethanol and the concentrations determined using UV spectrophotometry. Serial dilutions were prepared so that a range of drug concentrations could be tested without changing the final concentration of ethanol (≦0.2%) present in the cell cultures.
Human promyelocytic leukemia (HL60) cells were grown in RPMI-1640 medium containing 10% fetal bovine serum. The cells were incubated at 37° C. in the presence of 5% CO2.
HL60 cells were plated at 1.2×10^5 cells/ml. Eighteen hours after plating, cells in duplicate were treated with drug. Four days later, the cells were harvested and a nitro blue tetrazolium reduction assay was performed (Collins et al., 1979; J. Exp. Med. 149:969-974). The percentage of differentiated cells was determined by counting a total of 200 cells and recording the number that contained intracellular black-blue formazan deposits. Verification of differentiation to monocytic cells was determined by measuring phagocytic activity (data not shown).

Test [2] concerns 24-hydroxylase (24 Ohase) gene promoter in ROS 17/2.8 (bone) cells. As to the kind of experiment: In vitro transcription assay (24-hydroxylase promoter luciferase reporter). The format is cell-based. The note with it: FIG. 3; for EC50: ROS 17/2.8 cells, 24-hydroxylase promoter luciferase, 16 h, read-out: EC50, transcriptional activity in bone cells; for transcription of the 24-hydroxylase gene, times less potent than 1,25-(OH)2D3: relative to 1,25-(OH)2D3. How it is done:
In vitro Transcription Assay
Transcription activity was measured in ROS 17/2.8 (bone) cells that were stably transfected with a 24-hydroxylase (24 Ohase) gene promoter upstream of a luciferase reporter gene (Arbour et al., 1998). Cells were given a range of doses. Sixteen hours after dosing the cells were harvested and luciferase activities were measured using a luminometer.
RLU=relative luciferase units.

In test [3] the test system is bone calcium mobilization. As to the kind of experiment: Bone calcium mobilization (serum calcium). Particulars: low calcium diet (0.02%), FIG. 4; for bone calcium mobilization activity: ip. In kind it is in vivo, Sprague-Dawley rats. How it is done: (§1) Intestinal Calcium Transport and Bone Calcium Mobilization Male, weanling Sprague-Dawley rats were placed on Diet 11 (0.47% Ca) diet +AEK oil for one week followed by Diet 11 (0.02% Ca) +AEK oil for 3 weeks. The rats were then switched to a diet containing 0.47% Ca for one week followed by two weeks on a diet containing 0.02% Ca. Dose administration began during the last week on 0.02% calcium diet. Four consecutive ip doses were given approximately 24 hours apart. Twenty-four hours after the last dose, blood was collected from the severed neck and the concentration of serum calcium determined as a measure of bone calcium mobilization. The first 10 cm of the intestine was also collected for intestinal calcium transport analysis using the everted gut sac method.

Test [4] has as its system intestinal calcium transport. As to the kind of experiment: Intestinal calcium transport (everted gut sac method). The format is in vivo, Sprague-Dawley rats. Particulars: FIG. 5. How it is done:
as §1

Entries after “also recorded” stand apart in the source; their conditions may differ. Like-named read-outs stand apart in the source and are kept apart here.

On to `C[C@H](CCCC(C)(C)O)C1CCC2/C(=C/C=C3/C[C@@H](O)C4=CCO[C@@H]4C3)CCC[C@@]21C` (stereo partly shown) [A-REV5, 1,2-dihydrofuran-25-hydroxy-19-nor-vitamin D3], for which the Ki in test [1] (full-length recombinant rat vitamin D receptor, FIG. 1, read-out: Ki, competition with [3H]-1,25-(OH)2D3 for binding to VDR) was 0.6 nM. The “VDR affinity, times less potent than 1,25-(OH)2D3” value in test [1] (relative to 1,25-(OH)2D3, FIG. 1) is reported as approximately 10 times. For the same molecule, the “reduced VDR binding affinity” value in test [1] (relative to native hormone) is reported as “about 1 log”. The EC50 in the test on HL-60 cells (Homo sapiens, 96 h, FIG. 2) is 30 nM; in test [2] it was 8 nM. Also, the “HL-60 differentiation, times less potent than 1,25-(OH)2D3” value in the test with HL-60 cells (relative to 1,25-(OH)2D3, FIG. 2) is approximately 10 times. The “reduced cell differentiation potency” value with HL-60 cells (relative to native hormone) was 1 log. Further, the “transcription of the 24-hydroxylase gene, times less potent than 1,25-(OH)2D3” value in test [2] is listed as “about 40 times”; in test [2] (listed as Ia), 40 times. Moreover, in test [3] (7,020 pmol/day for 4 consecutive days), the “bone calcium mobilization activity” value is “no bone calcium mobilization activity; also recorded: did not result in any mobilization of bone calcium”. Besides, the “intestinal calcium transport activity” value in test [4] (780 pmol/day for 4 consecutive days, compared with 1,25-(OH)2D3 at 780 pmol/day) is “almost the same activity as 1,25-(OH)2D3”. For the same molecule, the “intestinal calcium transport activity, overall compared with 1,25-(OH)2D3” value in test [4] (in vivo, no dose stated) is reported as “promotes intestinal calcium transport in a dose dependent manner; also recorded: only slightly lower potency in vivo”.
For the molecule `C=C1/C(=C\C=C2/CCC[C@]3(C)[C@@H]([C@H](C)CCCC(C)(C)O)CC[C@@H]23)C[C@@H](O)C[C@@H]1O` [1,25-(OH)2D3, 1α,25-dihydroxyvitamin D3, reference compound], the EC50 turned out to be 3 nM in the test on HL-60 cells (FIG. 2) and 0.2 nM in test [2]. Also, the “bone calcium mobilization activity” value in test [3] (260 pmol/day) is “significant activity”. The serum calcium levels result in test [3] (all the dosages tested) is given as “increased serum calcium levels at all the dosages tested”.
